{"source": "ChEMBL document CHEMBL1157996", "about": "“Guttiferone F, the first prenylated benzophenone from Allanblackia stuhlmannii” (J Nat Prod, 1999)", "test_system": "Human immunodeficiency virus 1", "assay": "Antiviral activity against HIV1 assessed as protection against virus-induced cytopathogenicity", "assay_type": "functional, organism-based"}
{"smiles": "C=C(C)[C@H](CC=C(C)C)C[C@@]12C[C@@H](CC=C(C)C)C(C)(C)[C@@](CC=C(C)C)(C(=O)C(C(=O)c3ccc(O)c(O)c3)=C1O)C2=O", "note": "[GUTTIFERONE F]", "values": [{"measurement": "EC50", "value": 23, "unit": "µg/mL"}]}
